Experiments:
Type in all cases: binding
[1] = molecular target: T1, Tau210-2202P (Homo sapiens, UniProt P10636); test: Fluorescence spectra titration with Tau210-2202P added dropwise; conditions: compound 10 μM, pH 7.2, 50 mM HEPES buffer, 25° C.
T1 construct: made in house; host or cells: chemical solid-phase synthesis
Method: (§1) The peptide recognizing abilities of compounds 1 and 2 were evaluated by measuring fluorescence spectra. Measurement was performed under conditions of [compound 1 or 2=10 μM, an optical path length of 1 cm, pH 7.2, 50 mM HEPES buffer and 25° C. The excitation wavelength was λex=323 nm, Ex/Em=15 nm/10 nm, except λex=323 nm, Ex/Em=5 nm/10 nm for only Tau210-2202P, for compound 1, and λex=305 nm, Ex/Em=10 nm/12 nm for compound 2. […] When the peptide was excessively added, this change reached saturation. The association constants calculated from the fluorescence changes were in the order of approx. 10^5 M^−1. […] When the fluorescence spectra of compounds 1 and 2 themselves were compared, compound 2 emitted much weaker fluorescence on the short wavelength side and stronger fluorescence on the long wavelength side than compound 1 (FIG. 8B) ([compound 1 or 2=10 μM, λex=305 nm, Ex/Em=10 nm/12 nm, 50 mM HEPES buffer, 1 cm cell, 25° C.).

[2] = test system: peptides with two phosphate groups positioned with a distance of (i, i+2); test: Fluorescence titration of compound 1 with (i, i+2) diphosphorylated tau peptides
Method: as §1

[3] = molecular target: T2, peptides with two phosphate groups with a distance of (i, i+4) or (i, i+6) (Homo sapiens, UniProt P10636); test: Fluorescence titration of compound 1 with (i, i+4) or (i, i+6) diphosphorylated tau peptides
T2 construct: made in house; host or cells: chemical solid-phase synthesis
Method: as §1

[4] = Fluorescence titration of compound 1 with phenyl phosphate
Method: as §1

[5] = molecular target: T3, Tau204-2163P (Homo sapiens, UniProt P10636); test: Fluorescence titration of compound 1 with Tau204-2163P
T3 construct: made in house; host or cells: chemical solid-phase synthesis
Method: as §1

[6] = molecular target: T4, Tau204-2162P (i, i+4) (Homo sapiens, UniProt P10636); test: Fluorescence titration of compound 1 with Tau204-2162P (i, i+4)
T4 construct: made in house; host or cells: chemical solid-phase synthesis
Method: as §1

[7] = molecular target: T5, Tau204-2162P(i, i+6) (Homo sapiens, UniProt P10636); test: Fluorescence titration of compound 1 with Tau204-2162P (i, i+6)
T5 construct: made in house; host or cells: chemical solid-phase synthesis
Method: as §1

[8] = molecular target: T1, Tau210-2202P; test: ITC measurement of affinity, Tau210-2202P; conditions: compound 1 100 μM, peptide 2 mM, 25° C., pH 7.2, 50 mM HEPES
Method: (§2) To determine whether these fluorescence changes are associated with binding, affinity was examined by ITC measurement using, in particular, three peptides of Tau210-2202P, Tau204-2163P and Tau204-2162P(i, i+6). ITC measurement was performed under the following conditions: Tau210-2202P, [compound 1]=100 μM and [peptide]=2 mM; Tau204-2163P, [compound 1]=50 μM and [peptide]=1 mM; Tau204-2162P(i, i+6), [compound 1]=100 μM and [peptide]=3.24 mM; the number of titrations, 24; measurement temperature, 25° C.; pH 7.2; and 50 mM HEPES buffer. FIG. 11 illustrates caloric changes when Tau210-2202P was added to compound 1. FIG. 12 illustrates various thermodynamic parameters obtained from the caloric changes in the three different peptides. The caloric changes associated with the dropping of the peptide was an entropy-driven endothermic process (ΔS>0, ΔH>0). This change can be attributed to dehydration of water molecules hydrated to the compound molecules and the phosphorylated peptides along with the binding. The association constants obtained in Tau210-2202P and Tau204-2163P (K=3.33×10^5 M^−1 and K=2.88×10^5 M^−1, respectively) were similar to the values calculated from the fluorescence changes. […] On the other hand, N=0.51 was obtained in Tau204-2162P(i, i+6), and it appears that two compound molecules individually interact with two phosphate groups on the peptide.

[9] = molecular target: T3, Tau204-2163P; test: ITC measurement of affinity, Tau204-2163P; conditions: compound 1 50 μM, peptide 1 mM, 25° C., pH 7.2, 50 mM HEPES
Method: as §2

[10] = molecular target: T5, Tau204-2162P(i, i+6); test: ITC measurement of affinity, Tau204-2162P(i, i+6); conditions: compound 1 100 μM, peptide 3.24 mM, 25° C., pH 7.2
Method: as §2

[11] = molecular target: T6, phosphorylated tau aggregate (p-Tau) (Homo sapiens, UniProt P10636); test: Fluorescence staining of phosphorylated tau aggregate prepared in vitro
T6 construct: made in house; host or cells: Escherichia coli
T6 sequence (P10636 1-441 isoform P10636-8): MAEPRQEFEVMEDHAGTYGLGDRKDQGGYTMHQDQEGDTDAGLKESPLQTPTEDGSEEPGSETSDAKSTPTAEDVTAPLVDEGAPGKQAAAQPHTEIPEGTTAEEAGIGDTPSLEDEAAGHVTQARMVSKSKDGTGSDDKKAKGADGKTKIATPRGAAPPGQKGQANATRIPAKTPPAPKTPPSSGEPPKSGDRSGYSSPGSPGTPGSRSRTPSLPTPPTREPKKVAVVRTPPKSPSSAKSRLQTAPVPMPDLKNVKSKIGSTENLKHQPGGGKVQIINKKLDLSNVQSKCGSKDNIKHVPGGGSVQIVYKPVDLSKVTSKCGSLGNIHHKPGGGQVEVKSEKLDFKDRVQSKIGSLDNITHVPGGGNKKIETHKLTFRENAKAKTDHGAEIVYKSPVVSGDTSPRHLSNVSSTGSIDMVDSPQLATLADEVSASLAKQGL
Method: (§3) Tau proteins (8 μM) expressed by Escherichia coli and heparin (1.6 μM) were incubated at 37° C. for 20 days to prepare a tau aggregate. A phosphorylated tau aggregate was similarly prepared using tau proteins phosphorylated with GSK-3β in vitro. The results of Pro-Q diamond staining after performing SDS-PAGE confirmed that the in-vitro phosphorylation was performed with a phosphorylation degree of 6 mol P/mol Tau.
(§4) 10 μM BODIPY-Zn(Dpa) or 10 μM thioflavine T (may be referred to as ThT) were added to the prepared tau aggregate or phosphorylated tau aggregate. After the addition, the mixture was washed twice with 0.5 mM Zn(NO3)2, and a suspension (0.5 μL) of the stained phosphorylated tau aggregate was air-dried on a cover glass and observed under a confocal laser scanning microscope (OLYMPUS FV-1000, Obj. lens 100×).

[12] = molecular target: T7, nonphosphorylated Tau aggregate (n-Tau) (Homo sapiens, UniProt P10636); test: Fluorescence staining of nonphosphorylated tau aggregate prepared in vitro; conditions: 10 μM dye
T7 construct: made in house; host or cells: Escherichia coli
T7 sequence (P10636 1-441 isoform P10636-8): as above
Method: as §3, §4

staining of aggregate ([11]; p-Tau in the presence of pyrophosphoric acid (PPi)) | staining of aggregate [12] | Structure (SMILES) | association constants calculated from the fluorescence changes [1] | fluorescence change on dropwise addition of Tau210-2202P [1] | binding constants to the peptides calculated from the fluorescence changes ([2]; (i, i+2) peptides) | fluorescence change on dropwise addition of peptide ([2]; (i, i+2) peptides, compound 1 10 μM) | Ka ([2]; (i, i+2) phosphate groups on tau sequence, summary) | fluorescence change on dropwise addition of peptide ([3]; (i, i+4) or (i, i+6) peptides) | binding to two phosphate groups ([3]; positions (i, i+4) or (i, i+6), summary) | fluorescence change [4] | fluorescence change [5] | fluorescence change [6] | fluorescence change [7] | association constant K (ITC) [8] | association constant K (ITC) [9] | stoichiometry N (ITC) [10] | staining of aggregate ([11]; p-Tau, 10 μM dye)
– | – | CN(Cc1ccccn1)Cc1cc(/C=C/c2ccnc(CN(C)Cc3ccccn3)c2)ccn1.O=[N+]([O-])[O-].O=[N+]([O-])[O-].O=[N+]([O-])[O-].O=[N+]([O-])[O-].[Zn+2].[Zn+2] [compound 1] | approx. 10^5 M^−1 | dual wavelength fluorescence changes | approx. 10^5 | dual wavelength fluorescence changes | ~10^5 M^−1 | did not show marked fluorescence changes | did not bind | no marked fluorescence change | dual wavelength fluorescence changes occurred | no marked fluorescence change occurred | no marked fluorescence change occurred | 333000 M⁻¹ | 288000 M⁻¹ | 0.51 | –
stained the aggregate | is observed | Cc1ccc2c(c1)sc(-c1ccc(N(C)C)cc1)[n+]2C.[Cl-] [thioflavine T, reference compound] | – | – | – | – | – | – | – | – | – | – | – | – | – | – | fluorescence of ThT and that of BODIPY-Zn(Dpa) overlapped

Reference: patent US8093060B2, “Multisite phosphorylated peptide (protein) recognizing compound and detection method, imaging method, alzheimer's disease diagnosing method and reagent kit using the same” (Canon Kabushiki Kaisha, priority 2008, dated 2012)
